# Data as given in patent US10745416B2, “Macrocyclic compounds for treating disease” (Turning Point Therapeutics, Inc., priority 2017, dated 2020).
# Key:
# Test in all cases: Cell proliferation assay (CellTiter-Glo, 72 hours)
# TT cell (RET C634W) = type: cell-based; settings: Homo sapiens, anti-cell proliferation
# Protocol: Human medulla thyroid carcinoma cell line TT (containing RET […] mutation) and acute myelogenous cell line KG-1 were purchased from ATCC. Human colon cancer cell line KMI2 (containing TPM3-TRKA) was obtained from NCI.
# Two thousand cells per well were seeded in 384 well white plate for 24 hrs, and then treated with compounds for 72 hours (37° C., 5% CO2). Cell proliferation was measured using CellTiter-Glo luciferase-based ATP detection assay (Promega) following the manufactures's protocol. IC50 determinations were performed using GraphPad Prism software (GraphPad, Inc., San Diego, Calif.).
# BaF3 EML4-ALK = target: T1, BaF3 EML4-ALK (Homo sapiens, UniProt Q9UM73); type: cell-based; settings: anti-cell proliferation
# T1 construct: The EML4-ALK gene (variant 1) was synthesized at GenScript and cloned into pCDH-CMV-MCS-EF1-Puro plasmid (System Biosciences, Inc); fused on or other part: Q9HC35 (Echinoderm microtubule-associated protein-like 4)
# T1 sequence (Q9UM73 whole entry, change not shown, the tested form may be a part): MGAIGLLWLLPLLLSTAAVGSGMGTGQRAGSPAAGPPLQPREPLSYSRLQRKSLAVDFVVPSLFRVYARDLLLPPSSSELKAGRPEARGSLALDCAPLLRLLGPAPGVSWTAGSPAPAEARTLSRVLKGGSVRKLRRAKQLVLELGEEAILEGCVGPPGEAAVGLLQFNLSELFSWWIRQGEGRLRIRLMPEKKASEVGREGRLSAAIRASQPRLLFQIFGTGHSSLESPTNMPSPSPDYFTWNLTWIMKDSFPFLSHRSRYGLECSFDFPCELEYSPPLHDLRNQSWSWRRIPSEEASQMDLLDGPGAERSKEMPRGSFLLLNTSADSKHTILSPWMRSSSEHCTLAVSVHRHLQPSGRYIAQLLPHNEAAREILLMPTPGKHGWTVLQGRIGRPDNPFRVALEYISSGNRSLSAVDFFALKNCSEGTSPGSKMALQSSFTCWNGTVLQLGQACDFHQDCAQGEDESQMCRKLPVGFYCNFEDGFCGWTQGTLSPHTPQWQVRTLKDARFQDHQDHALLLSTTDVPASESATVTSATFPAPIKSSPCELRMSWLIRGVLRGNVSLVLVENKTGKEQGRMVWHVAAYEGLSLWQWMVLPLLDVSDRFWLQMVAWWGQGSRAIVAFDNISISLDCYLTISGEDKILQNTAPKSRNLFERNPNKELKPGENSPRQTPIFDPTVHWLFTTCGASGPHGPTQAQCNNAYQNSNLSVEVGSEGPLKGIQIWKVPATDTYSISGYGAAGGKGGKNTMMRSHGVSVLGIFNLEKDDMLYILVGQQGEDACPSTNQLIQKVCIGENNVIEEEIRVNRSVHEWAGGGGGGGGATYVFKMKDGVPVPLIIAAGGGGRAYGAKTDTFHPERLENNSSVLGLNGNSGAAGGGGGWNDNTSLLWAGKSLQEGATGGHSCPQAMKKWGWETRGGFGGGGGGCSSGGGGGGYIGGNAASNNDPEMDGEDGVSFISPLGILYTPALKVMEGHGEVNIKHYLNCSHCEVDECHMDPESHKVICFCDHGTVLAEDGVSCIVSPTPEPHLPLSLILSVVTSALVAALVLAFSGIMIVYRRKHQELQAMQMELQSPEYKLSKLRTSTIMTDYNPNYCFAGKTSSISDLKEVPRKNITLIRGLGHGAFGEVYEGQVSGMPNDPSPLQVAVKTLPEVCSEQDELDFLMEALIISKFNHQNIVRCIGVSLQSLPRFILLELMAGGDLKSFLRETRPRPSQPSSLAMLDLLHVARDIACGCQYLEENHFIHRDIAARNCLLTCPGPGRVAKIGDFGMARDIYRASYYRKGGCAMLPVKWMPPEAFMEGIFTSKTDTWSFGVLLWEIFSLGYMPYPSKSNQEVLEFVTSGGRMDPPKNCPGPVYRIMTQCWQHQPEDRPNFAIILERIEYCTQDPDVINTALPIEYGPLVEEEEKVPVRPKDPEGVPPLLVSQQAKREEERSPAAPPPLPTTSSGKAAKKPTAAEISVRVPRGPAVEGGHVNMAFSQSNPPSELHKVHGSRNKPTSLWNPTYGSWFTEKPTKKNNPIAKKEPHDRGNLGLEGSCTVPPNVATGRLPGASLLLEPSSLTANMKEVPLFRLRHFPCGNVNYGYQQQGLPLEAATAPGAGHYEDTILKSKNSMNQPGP
# Summary of the method: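 Ba/F3 cells were stably transduced with wild-type EML4-ALK variant 1 and selected for IL-3-independent growth. Cells were seeded for 24 h, then exposed to compounds for 72 h at 37 °C, 5% CO2. Viability was read as ATP luminescence and IC50 values were fitted.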
# BaF3 KIF5B-RET_V804M = target: T2, BaF3 KIF5B-RET_V804M (Homo sapiens, UniProt P07949, V804M, cells depend on it); type: cell-based; settings: anti-cell proliferation, read-out: BaF3 KIF5B-RET_V804M IC50
# T2 construct: fused on or other part: P33176 (Kinesin-1 heavy chain)
# T2 sequence (P07949 whole entry V804M, the tested form may be a part): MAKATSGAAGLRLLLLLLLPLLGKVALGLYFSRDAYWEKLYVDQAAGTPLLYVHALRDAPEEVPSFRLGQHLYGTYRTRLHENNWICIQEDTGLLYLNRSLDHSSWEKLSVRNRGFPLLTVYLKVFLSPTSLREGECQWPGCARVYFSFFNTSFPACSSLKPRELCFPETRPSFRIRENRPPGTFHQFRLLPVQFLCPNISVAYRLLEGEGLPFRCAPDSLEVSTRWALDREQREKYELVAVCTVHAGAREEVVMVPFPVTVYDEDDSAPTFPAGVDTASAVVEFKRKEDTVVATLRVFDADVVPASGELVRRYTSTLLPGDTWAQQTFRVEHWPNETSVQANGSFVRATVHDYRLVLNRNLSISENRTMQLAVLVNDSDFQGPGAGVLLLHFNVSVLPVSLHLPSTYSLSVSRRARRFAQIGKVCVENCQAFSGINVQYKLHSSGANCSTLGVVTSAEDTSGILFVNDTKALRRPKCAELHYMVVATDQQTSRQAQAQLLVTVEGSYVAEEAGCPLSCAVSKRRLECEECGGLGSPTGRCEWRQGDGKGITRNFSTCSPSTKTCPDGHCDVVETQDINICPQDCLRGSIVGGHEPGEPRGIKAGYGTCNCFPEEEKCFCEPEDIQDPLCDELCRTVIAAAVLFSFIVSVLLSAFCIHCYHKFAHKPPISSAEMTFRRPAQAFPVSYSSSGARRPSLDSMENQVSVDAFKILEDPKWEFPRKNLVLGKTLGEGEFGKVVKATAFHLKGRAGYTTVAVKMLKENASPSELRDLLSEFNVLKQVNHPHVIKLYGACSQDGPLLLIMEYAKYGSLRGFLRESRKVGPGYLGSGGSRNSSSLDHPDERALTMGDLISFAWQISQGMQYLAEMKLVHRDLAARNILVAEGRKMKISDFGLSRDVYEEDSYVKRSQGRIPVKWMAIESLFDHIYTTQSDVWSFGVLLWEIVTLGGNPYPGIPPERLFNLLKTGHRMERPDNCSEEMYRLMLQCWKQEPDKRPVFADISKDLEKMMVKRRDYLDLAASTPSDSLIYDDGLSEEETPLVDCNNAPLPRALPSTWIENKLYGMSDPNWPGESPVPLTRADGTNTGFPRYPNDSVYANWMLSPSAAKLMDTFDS
# Summary of the method: (§1)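 Ba/F3 cells were lentivirally transduced with wild-type or mutant KIF5B-RET, puromycin-selected and grown without IL-3. CellTiter-Glo ATP luminescence read viability, and IC50 values came from curve fitting.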
# BaF3 KIF5B-RET = target: T3, BaF3 KIF5B-RET (Homo sapiens, UniProt P07949); type: cell-based; settings: anti-cell proliferation, read-out: BaF3 KIF5B-RET IC50
# T3 construct: fused on or other part: P33176 (Kinesin-1 heavy chain)
# T3 sequence (P07949 whole entry, change not shown, the tested form may be a part): as the sequence (P07949 whole entry V804M, the tested form may be a part) above, with M804V counted along it
# Summary of the method: as §1
# KG-1 = type: cell-based, human; settings: Homo sapiens, KG-1, anti-cell proliferation
# Summary of the method: (§2)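 Cells used were KG-1 (AML), TT medullary thyroid carcinoma ([…]) and KM12 colon (TPM3-TRKA). Viability was read by CellTiter-Glo ATP luminescence, and IC50 derived by curve fitting.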
# KM12 cell (TPM3-TRKA) = type: cell-based, human; settings: Homo sapiens, KM12, anti-cell proliferation
# Summary of the method: as §2
# BaF3 KIF5B-RET_G810R = target: T4, BaF3 KIF5B-RET_G810R (Homo sapiens, UniProt P07949, G810R, cells depend on it); type: cell-based; settings: anti-cell proliferation, read-out: BaF3 KIF5B-RET_G810R IC50
# T4 construct: fused on or other part: P33176 (Kinesin-1 heavy chain)
# T4 sequence (P07949 whole entry G810R, the tested form may be a part): as the sequence (P07949 whole entry V804M, the tested form may be a part) above, with M804V, G810R counted along it
smiles,measurement,setting,value
"C[C@H]1CNC(=O)c2cnn3cc4c(nc23)N(Cc2cc(F)cc(F)c2O1)[C@@H]1CCC[C@@H]1O4 [Compound 3, (3aR,11S,20aS)-7,9-difluoro-11-methyl-2,3,3a,12,13,20a-hexahydro-1H,5H-17-19-(metheno)cyclopenta[5,6][1,4] oxazino[3,4-i]pyrazolo[4,3-f][1,4,8,10]benzoxatriacyclotridecin-14(11H)-one]",IC50,TT cell (RET C634W),7.9 nM
same,GI50,BaF3 EML4-ALK,1500 nM
same,GI50,BaF3 KIF5B-RET_V804M,1700 nM
same,GI50,BaF3 KIF5B-RET,< 0.2 nM
same,IC50,KG-1,505 nM
same,IC50,KM12 cell (TPM3-TRKA),4.2 nM
C[C@H]1CNC(=O)c2cnn3cc4c(nc23)N(Cc2cc(F)ccc2O1)[C@@H]1CCC[C@H]1O4 [Compound 2],IC50,TT cell (RET C634W),1780 nM
same,GI50,BaF3 EML4-ALK,> 10000 nM
same,GI50,BaF3 KIF5B-RET_V804M,> 10000 nM
same,GI50,BaF3 KIF5B-RET,1450 nM
same,IC50,KG-1,5000 nM
same,IC50,KM12 cell (TPM3-TRKA),255 nM
"O=C1N[C@H](C(F)(F)F)COc2ncc(F)cc2CN2c3nc4c1cnn4cc3O[C@H]1CCC[C@H]12 [Compound 48, (3aR,12S,20aS)-7-fluoro-12-(trifluoromethyl)-2,3,3a,12,13,20a-hexahydro-1H,5H-17,19-(metheno)cyclopenta[5,6][1,4]oxazino[3,4-i]pyrazolo[4,3-f]pyrido[3,2-l][1,4,8,10]oxatriazacyclotridecin-14(11H)-one]",GI50,BaF3 EML4-ALK,456 nM
same,GI50,BaF3 KIF5B-RET_V804M,1070 nM
same,GI50,BaF3 KIF5B-RET_G810R,90.9 nM
same,GI50,BaF3 KIF5B-RET,0.2 nM
same,IC50,KG-1,117 nM
same,IC50,KM12 cell (TPM3-TRKA),5.9 nM
"C[C@H]1CNC(=O)c2cnn3cc4c(nc23)N(Cc2cc(F)ccc2O1)[C@@H]1COC[C@@H]1O4 [Compound 4, (3aR,11S,20aS)-7-fluoro-11-methyl-1,3,3a,12,13,20a-hexahydro-5H-17-19-(metheno)furo[3′,4′:5,6][1,4] oxazino[3,4-i]pyrazolo[4,3-f][1,4,8,10]benzoxatriacyclotridecin-14(11H)-one]",IC50,TT cell (RET C634W),462 nM
same,GI50,BaF3 EML4-ALK,3290 nM
same,GI50,BaF3 KIF5B-RET_V804M,5000 nM
same,GI50,BaF3 KIF5B-RET,184 nM
same,IC50,KG-1,5000 nM
same,IC50,KM12 cell (TPM3-TRKA),22 nM
"O=C1NCC2(CC2)COc2ncc(F)cc2CN2c3nc4c1cnn4cc3O[C@H]1CCC[C@H]12 [Compound 20, (3a′R,21a′S)-7′-fluoro-1′H,2′H,3′H,3a′H, 5′H,11′H,13′H,14′H,15′H,21a′H-spiro[cyclopropane-1,12′-[10,21]dioxa[4,9,14,17,18,19][hexaaza [18,20](metheno)cyclopenta[5,6][1,4]oxazino[4,3-e]pyrazolo[3,4-h]pyrido [3,2-b][1,5,7,11]oxatriazacyclotetradecin]-15′-one]",GI50,BaF3 EML4-ALK,1400 nM
same,GI50,BaF3 KIF5B-RET_V804M,1860 nM
same,GI50,BaF3 KIF5B-RET_G810R,7.8 nM
same,GI50,BaF3 KIF5B-RET,1.1 nM
same,IC50,KG-1,2.4 nM
same,IC50,KM12 cell (TPM3-TRKA),0.5 nM
"CC1(C)CNC(=O)c2cnn3cc4c(nc23)N(Cc2cc(F)cnc2OC1)[C@@H]1CCC[C@@H]1O4 [Compound 27, (3aR,21aS)-7-fluoro-12,12-dimethyl-2,3,3a,11,12,13,14,21a-octahydro-1H,5H,15H-18,20-(metheno)cyclopenta[5,6][1,4]oxazino[4,3-e]pyrazolo[3,4-h]pyrido[2,3-b][1,5,7,11]oxatriazacyclotetradecin-15-one]",GI50,BaF3 EML4-ALK,1000 nM
same,GI50,BaF3 KIF5B-RET_V804M,2000 nM
same,GI50,BaF3 KIF5B-RET_G810R,63 nM
same,GI50,BaF3 KIF5B-RET,< 0.2 nM
same,IC50,KG-1,0.3 nM
same,IC50,KM12 cell (TPM3-TRKA),0.3 nM
"C[C@H]1CCOc2ncc(F)cc2CN2c3nc4c(cnn4cc3O[C@H]3CCC[C@H]32)C(=O)N1 [Compound 28, (3aR,13S,21aS)-7-fluoro-13-methyl-2,3,3a,11,12,13,14,21a-octahydro-1H,5H,15H-18,20-(metheno)cyclopenta[5,6][1,4]oxazino[4,3-e]pyrazolo[3,4-h]pyrido[2,3-b][1,5,7,11]oxatriazacyclotetradecin-15-one]",GI50,BaF3 EML4-ALK,803 nM
same,GI50,BaF3 KIF5B-RET_V804M,2000 nM
same,GI50,BaF3 KIF5B-RET_G810R,72 nM
same,GI50,BaF3 KIF5B-RET,1.5 nM
same,IC50,KG-1,22.8 nM
same,IC50,KM12 cell (TPM3-TRKA),11.8 nM
"O=C1NC[C@@H](F)COc2ncc(F)cc2CN2c3nc4c1cnn4cc3O[C@H]1CCC[C@H]12 [Compound 39, 3aR,12R,21aS)-7,12-difluoro-2,3,3a,11,12,13,21a-octahydro-1H,5H, 15H-18,20-(metheno)cyclopenta[5,6][1,4] oxazino[4,3-e]pyrazolo[3,4-h]pyrido[2,3-b][1,5,7,11]oxatriazacyclotetradecin-15-one]",GI50,BaF3 EML4-ALK,152 nM
same,GI50,BaF3 KIF5B-RET_V804M,3000 nM
same,GI50,BaF3 KIF5B-RET_G810R,57.3 nM
same,GI50,BaF3 KIF5B-RET,10.2 nM
same,IC50,KG-1,59.2 nM
same,IC50,KM12 cell (TPM3-TRKA),7.4 nM
